The conditions of data set [1]: cited from earlier work.
The nature of data set [2]: Solubility comparison: saturated solution in water, absorbance at 210 nm. Format: physicochemical. To be noted: room temperature. How it is done:
Solubility studies of different aprepitant powders were conducted. Sufficient aprepitant having either crystalline Form I or II, or in the form of an amorphous povidone coprecipitate, was added to a 25 ml test tube containing 10 ml of water at room temperature to get a saturated solution. The solutions were filtered and filtrate was used to obtain the absorbance at 210 nm. Absorbance was compared to standards prepared by dissolving aprepitant in methanol, then diluting aliquots with water.

Each structure is given as a SMILES string. ≈ marks a conversion by molar mass, not a printed value. Like-named read-outs stand apart in the source and are kept apart here.

For `C[C@@H](O[C@H]1OCCN(Cc2n[nH]c(=O)[nH]2)[C@H]1c1ccc(F)cc1)c1cc(C(F)(F)F)cc(C(F)(F)F)c1` [Aprepitant, 5-[[(2R,3S)-2-[(1R)-1-[3,5-bis(trifluoromethyl)phenyl]ethoxy]-3-(4-fluorophenyl)-4-morpholinyl]methyl]-1,2-dihydro-3H-1,2,4-triazol-3-one], the Solubility in acetonitrile entry in data set [1] (acetonitrile) was “slightly soluble”. For the same molecule, the Solubility in ethanol entry in data set [1] (ethanol) is given as “sparingly soluble”. In data set [1] (isopropyl acetate), the “Solubility in isopropyl acetate” value was “sparingly soluble”. Moreover, in data set [1] (water), the Solubility in water result is listed as “practically insoluble”.

Turning to `C[C@@H](O[C@H]1OCCN(Cc2n[nH]c(=O)[nH]2)[C@H]1c1ccc(F)cc1)c1cc(C(F)(F)F)cc(C(F)(F)F)c1` [crystalline Form II, 5-[[(2R,3S)-2-[(1R)-1-[3,5-bis(trifluoromethyl)phenyl]ethoxy]-3-(4-fluorophenyl)-4-morpholinyl]methyl]-1,2-dihydro-3H-1,2,4-triazol-3-one], the Solubility in water in data set [2] was 140 µg/mL (≈ 262 µM).

Regarding `C[C@@H](O[C@H]1OCCN(Cc2n[nH]c(=O)[nH]2)[C@H]1c1ccc(F)cc1)c1cc(C(F)(F)F)cc(C(F)(F)F)c1` [crystalline Form I, 5-[[(2R,3S)-2-[(1R)-1-[3,5-bis(trifluoromethyl)phenyl]ethoxy]-3-(4-fluorophenyl)-4-morpholinyl]methyl]-1,2-dihydro-3H-1,2,4-triazol-3-one], the Solubility in water in data set [2] was 20 µg/mL (≈ 37.4 µM).

Source of the values: patent publication US20080214535A1, “Amorphous Aprepitant Coprecipitates” (DR. REDDY'S LABORATORIES LTD., priority 2005, published 2008).
